Data published in ChEMBL document CHEMBL1143207, “New 7,8-benzoflavanones as potent aromatase inhibitors: synthesis and biological evaluation” (Bioorg Med Chem, 2008).

molecular target: T1, Aromatase (Homo sapiens, UniProt P11511); type: microsomes, Placenta, Microsomes
T1 sequence (P11511 whole entry): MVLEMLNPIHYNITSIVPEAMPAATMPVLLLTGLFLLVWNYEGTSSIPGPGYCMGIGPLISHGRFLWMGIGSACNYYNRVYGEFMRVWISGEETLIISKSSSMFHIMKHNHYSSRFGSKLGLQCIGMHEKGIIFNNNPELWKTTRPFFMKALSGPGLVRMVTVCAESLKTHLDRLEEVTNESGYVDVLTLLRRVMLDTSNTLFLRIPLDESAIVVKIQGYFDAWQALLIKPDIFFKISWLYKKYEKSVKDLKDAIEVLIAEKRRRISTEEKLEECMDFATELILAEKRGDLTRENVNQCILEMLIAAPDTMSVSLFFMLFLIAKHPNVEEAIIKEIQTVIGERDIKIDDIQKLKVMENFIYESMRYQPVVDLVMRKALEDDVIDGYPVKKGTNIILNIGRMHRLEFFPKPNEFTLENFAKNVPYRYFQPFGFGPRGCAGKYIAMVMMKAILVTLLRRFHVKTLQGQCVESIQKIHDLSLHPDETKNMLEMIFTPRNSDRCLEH
Description: Inhibition of human aromatase in placental microsomes

| Structure (SMILES) | IC50 |
| --- | --- |
| N#Cc1ccc(C2CC(=O)c3ccc4ccccc4c3O2)cc1 (configuration not stated) | 1.54 µM |
| O=C1CC(c2cccc(O)c2)Oc2cc(O)ccc21 (configuration not stated) | 3.4 µM |
| N#Cc1cccc(C2CC(=O)c3ccc4ccccc4c3O2)c1 (configuration not stated) | 1.37 µM |
| O=C1CC(c2ccccc2)Oc2c1ccc1ccccc21 (configuration not stated) | 4.3 µM |
| O=C1C[C@@H](c2ccc(O)cc2)Oc2cc(O)ccc21 [LIQUIRTIGENIN] | 2.1 µM |

Molecules with a lower IC50, results first:

| IC50 | Structure (SMILES) |
| --- | --- |
| 0.63 µM | O=C1CC(c2ccc(O)cc2)Oc2c1ccc1ccccc21 (configuration not stated) |
| 0.61 µM | O=C1CC(c2cccc(O)c2)Oc2c1ccc1ccccc21 (configuration not stated) |
